Blank lines part the entries; values can stand above or below the compound they belong to.
Experiments:
[1] = cited from earlier work
SCD = target: T1, SCD (Homo sapiens, UniProt O00767); conditions: known from the art; cited from earlier work
T1 sequence (O00767 1-359): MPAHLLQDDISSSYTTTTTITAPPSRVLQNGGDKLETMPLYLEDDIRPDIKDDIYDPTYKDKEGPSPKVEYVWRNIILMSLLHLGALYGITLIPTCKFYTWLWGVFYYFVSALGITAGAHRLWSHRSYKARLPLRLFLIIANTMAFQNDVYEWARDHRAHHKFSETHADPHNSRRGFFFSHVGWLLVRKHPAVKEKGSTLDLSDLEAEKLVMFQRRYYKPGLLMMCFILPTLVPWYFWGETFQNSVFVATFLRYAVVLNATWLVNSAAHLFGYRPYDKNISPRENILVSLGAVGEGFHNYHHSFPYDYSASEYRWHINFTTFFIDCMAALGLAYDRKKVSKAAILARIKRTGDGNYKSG

[2] = Effect of SCD-1 inhibitor and rosiglitazone co-administration on body weight in ZDF rats (Example 1); assay type: in vivo, Male Zucker Diabetic Fatty Rats (ZDF); conditions: mean +/- SEM, Rosi 10 mg/kg, XEN103 5 mg/kg daily po; for Final Body Weight: end of treatment
Protocol: Male Zucker Diabetic Fatty Rats (ZDF) began treatment at the age of 7 weeks of age. Animals were housed three to a cage in a temperature, humidity and light controlled room. The animals were fed a standard rodent diet and had free access to water. Animals were randomized into groups of 9 and placed in the following experimental groups for daily dosing (10:30 am) as described in table 5 below. Animals were weighed three times per week. Food intake was recorded three times per week. XEN 1 is a representative SCD-1 inhibitor compound of the invention. The formulations were: • Vehicle=1% CMC:0.1% Tween 20:10% PG • Rosi-10=rosiglitazone 10 mg/kg in 1% CMC:0.1% Tween 20:10% PG • Rosi-10+XEN1=rosiglitazone 10 mg/kg+XEN1 5 mg/kg in 1% CMC:0.1% Tween 20:10% PG • XEN1=XEN1 5 mg/kg in 1% CMC:0.1% Tween 20:10% PG

SCD enzyme = target: T2, SCD enzyme (Rattus norvegicus, UniProt P07308); assay: Plasma desaturation index (DI) in ZDF rats after treatment (Example 2); assay type: in vivo; conditions: plasma triglycerides, mean +/- standard deviation, rosiglitazone 10 mg/kg, XEN1 5 mg/kg
T2 construct: indicator of endogenous SCD1 activity; from tissue; host or cells: living male Zucker Diabetic Fatty rats, dosed orally
T2 sequence (P07308 1-358): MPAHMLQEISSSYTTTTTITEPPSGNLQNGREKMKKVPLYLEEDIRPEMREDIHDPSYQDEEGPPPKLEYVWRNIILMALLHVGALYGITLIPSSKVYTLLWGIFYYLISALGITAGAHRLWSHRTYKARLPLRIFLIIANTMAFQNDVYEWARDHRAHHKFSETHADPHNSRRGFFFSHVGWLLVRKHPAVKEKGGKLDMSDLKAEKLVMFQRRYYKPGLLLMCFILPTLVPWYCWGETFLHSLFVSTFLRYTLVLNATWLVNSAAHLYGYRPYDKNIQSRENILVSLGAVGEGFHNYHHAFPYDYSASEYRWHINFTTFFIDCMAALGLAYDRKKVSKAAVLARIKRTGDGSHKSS
Description: Another suitable method is to indirectly measure the SCD-1 inhibitors impact on inhibition of SCD enzyme by measuring a subject's desaturation index (‘DI’) after administration of the SCD-1 inhibitors. DI as employed in this specification means the ratio of the product over the substrate for the SCD enzyme as measured from a given tissue sample. This may be calculated using three different equations 18:1n−9/18:0 (oleic acid over stearic acid); 16:1n−7/16:0 (palmitoleic acid over palmitic acid); and/or 16:1n−7+18:1n−7/16:0 (measuring all reaction products of 16:0 desaturation over 16:0 substrate). DI is primarily measured in liver or plasma triglycerides, but may also be measured in other selected lipid fractions from a variety of tissues.
Desaturation indexes were calculated from the fatty acid profile of circulating plasma triglycerides. […] An additional 0.5 mL of chloroform containing 0.05 mg/mL of glyceryl-triheptadecanoin as an internal standard were also added. Samples were thoroughly vortexed and the phases separated by centrifugation at 2000 rpm for 8 minutes. […]
3 desaturation indexes were calculated from the chromatograms based on absolute peak areas; the ratio of palmitoleic acid to palmitic acid (C16:1n7/C16:0), the ratio of oleic acid to stearic acid (C18:1n9/C18:0) and the ratio of palmitoleic acid and vaccenic acid to palmitic acid (C16:1n7+C18:1n7/C16:0).

SMILES: N[C@@H]1C[C@H]1c1ccccc1 (racemic) [Tranylcypromine]
Side Effect (in words) ([1]; human, in vivo): Adverse weight

SMILES: CCCCCCCCC1=C(CCCCCCCC(=O)O)C1 [Sterculic acid, 8-(2-octylcyclopropenyl)octanoic acid]
Inhibition of SCD activity (in words) (SCD): non-specifically inhibit SCD activity

Plasma desaturation index (DI) C16:1n7/C16:0 (SCD enzyme): 0.043 +/− 0.004
Plasma desaturation index (DI) C18:1n9/C18:0 (SCD enzyme): 5.874 +/− 0.422
SMILES: O=C(NCCC1CC1)c1ccc(N2CCN(C(=O)c3cc(F)ccc3C(F)(F)F)CC2)nn1 [XEN 1]
Final Body Weight [2]: 312.2 ± 5.1 g
Body Weight Gain - 5 week treatment [2]: 150.7 ± 3.5 g

SMILES: CCCCCCCCC1=C(CCCCCCC(=O)O)C1 [malvalic acid, 7-(2-octylcyclopropenyl)heptanoic acid]
Inhibition of SCD activity (in words) (SCD): non-specifically inhibit SCD activity

SMILES: CC(=O)O[C@]1(C(C)=O)CC[C@H]2[C@@H]3C[C@H](C)C4=CC(=O)CC[C@]4(C)[C@H]3CC[C@@]21C [medroxyprogesterone acetate]
Side Effect: increase in body weight ([1]; 6 months): 6.2% increase in

SMILES: CN(CCOc1ccc(CC2SC(=O)NC2=O)cc1)c1ccccn1 (centres unmarked) [rosiglitazone]
Final Body Weight [2]: 485.3 ± 7.3 g
Body Weight Gain - 5 week treatment [2]: 321.9 ± 6.5 g
Weight gain associated with low-dose treatment ([1]; 4 mg/day, after one year treatment): about 8 kg/year

From US7919484B2, “Combination therapy” (Xenon Pharmaceuticals Inc., priority 2005, dated 2011)
